Measurements: US20200060276A1, “THIAZOLE COMPOUND AND HERBICIDE” (OAT Agrio Co., Ltd., priority 2017, published 2020)

Tests used:
Type in all cases: in vivo
Scirpus juncoides = experiment: Test for Herbicidal Effect in Flooding Treatment (#1), SCIJU; conditions: flooding treatment at seeding, dose 2 kg/ha, visual observation on day 21
In short: (§1)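 Visual scores from 0 (<10% inhibition) to 5 (≥90% or complete withering) were taken 21 days after treatment of glasshouse-grown plants. Seeds were sown in soil flooded for 24 h beforehand, and compound was applied dropwise onto the surface at 2 kg/ha as an acetone solution diluted in water with Tween 80.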

Digitaria ciliaris = experiment: Test for Herbicidal Effect in Soil Treatment (#3); conditions: 504 h, dose of 2 kg/ha, day 21, visual observation, read-out: growth inhibition effect
Excerpt: 0: Growth inhibition effect is less than 10%. 1: Growth inhibition effect is equal to or greater than 10%, and less than 30%. 2; Growth inhibition effect is equal to or greater than 30%, and less than 50%. 3: Growth inhibition effect equal to or greater than 50%, and less than 70%. 4: Growth inhibition effect is equal to or greater than 70%, and less than 90%. 5: Growth inhibition effect is equal to or greater than 90%, or complete withering is achieved. (#3) Test for Herbicidal Effect in Soil Treatment: Styrol cups each having an opening diameter of 8 cm (about 52 cm^2) were respectively filled with soil (45 ml) which had been passed through a sieve (2 mm). Water (about 115 ml) was added. Thereafter, Digitaria ciliaris was seeded. Each of the compounds of the present invention was dissolved in acetone, and the obtained product was then diluted with water containing Tween 80°. Each of the resultant chemical solutions was dropped on the entire surface of an associated one of treatment sections, so that each section was treated with 1 ml of the respective chemical solution (a dose of 2 kg/ha). After the treatment, the plants were grown in a glasshouse. On day 21, a survey was conducted on the herbicidal activity by visual observation, and evaluation was made according to the following criteria. The herbicidal activity of the following comparative compounds A and B (the compounds disclosed Japanese Unexamined Patent Publication No. 2003-096059) were evaluated.

[1] = system: Echinochloa crus-galli (L.) P. Beauv. var. formosensis Ohwi; experiment: Test for Herbicidal Effect in Flooding Treatment (#2), ECHDG at 2-2.5 leaf stage; conditions: for ECHDG (2-2.5L) #2 herbicidal effect (growth inhibition grade): flooding treatment at 2-2.5 leaf stage, dose 0.2 kg/ha, visual observation on day 21; for inhibition at 200 g/ha: Echinochloa crus-galli, 504 h, flooding treatment (#2), ECHDG at 2-2.5 leaf stage, dose of 0.2 kg/ha, day 21, visual observation, read-out: growth inhibition effect
In short: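 Scoring is a visual 0–5 scale of growth inhibition (0 below 10%, 5 at 90% or more or full withering), taken 21 days after treatment in a glasshouse. Dose was 0.2 kg/ha, applied as acetone/Tween 80 aqueous solution onto flooded soil once seedlings reached the 2–2.5 leaf stage.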

[2] = system: Echinochloa crus-galli (L.) P. Beauv. var. formosensis Ohwi; experiment: Test for Herbicidal Effect in Flooding Treatment (#1), ECHDG; conditions: flooding treatment at seeding, dose 2 kg/ha, visual observation on day 21
In short: as §1

Cyperus microiria = experiment: Test for Herbicidal Effect in Flooding Treatment (#1), CYMIC; conditions: flooding treatment at seeding, dose 2 kg/ha, visual observation on day 21
In short: as §1

Monochoria vaginalis = experiment: Test for Herbicidal Effect in Flooding Treatment (#1), MONVA; conditions: flooding treatment at seeding, dose 2 kg/ha, visual observation on day 21
In short: as §1

Compound	SCIJU #1 herbicidal effect (growth inhibition grade) (Scirpus juncoides)	inhibition at 2000 g/ha (Digitaria ciliaris) [%]	ECHDG (2-2.5L) #2 herbicidal effect (growth inhibition grade) [1]	ECHDG #1 herbicidal effect (growth inhibition grade) [2]	CYMIC #1 herbicidal effect (growth inhibition grade) (Cyperus microiria)	MONVA #1 herbicidal effect (growth inhibition grade) (Monochoria vaginalis)	inhibition at 200 g/ha [1] [%]
CCOc1cc(F)c(CS(=O)(=O)c2ncc(Cl)s2)cc1F [Compound 1C-101, 5-chloro-2-[(2,5-difluoro-4-ethoxyphenyl)(methanesulfonyl)]-1,3-thiazole]	5 (Growth inhibition effect is equal to or greater than 90%, or complete withering is achieved)	≥ 50	5 (Growth inhibition effect is equal to or greater than 90%, or complete withering is achieved)	5 (Growth inhibition effect is equal to or greater than 90%, or complete withering is achieved)	5 (Growth inhibition effect is equal to or greater than 90%, or complete withering is achieved)	5 (Growth inhibition effect is equal to or greater than 90%, or complete withering is achieved)	–
O=S(=O)(Cc1ccccc1Cl)c1ncc(Cl)s1 [comparative compound B, reference compound]	–	30 to 50	–	–	–	–	30 to 50
CCOc1c(F)cccc1CS(=O)(=O)c1ncc(Cl)s1 [Compound 1C-9]	5 (Growth inhibition effect is equal to or greater than 90%, or complete withering is achieved)	≥ 50	5 (Growth inhibition effect is equal to or greater than 90%, or complete withering is achieved)	5 (Growth inhibition effect is equal to or greater than 90%, or complete withering is achieved)	5 (Growth inhibition effect is equal to or greater than 90%, or complete withering is achieved)	–	–
O=S(=O)(Cc1c(F)cccc1OC(F)F)c1ncc(Cl)s1 [Compound 1C-41, 5-chloro-2-{[2-(difluoromethoxy)-6-fluorophenyl][methanesulfonyl]}-1,3-thiazole]	5 (Growth inhibition effect is equal to or greater than 90%, or complete withering is achieved)	≥ 90	5 (Growth inhibition effect is equal to or greater than 90%, or complete withering is achieved)	5 (Growth inhibition effect is equal to or greater than 90%, or complete withering is achieved)	–	5 (Growth inhibition effect is equal to or greater than 90%, or complete withering is achieved)	≥ 90
O=S(=O)(Cc1ccccc1F)c1ncc(Cl)s1 [comparative compound A, reference compound]	–	30 to 50	–	–	–	–	10 to 30
O=S(=O)(Cc1c(Cl)cccc1OCC(F)(F)F)c1ncc(Br)s1 [Compound 1C-161, 5-bromo-2-{[2-(2,2,2-trifluoroethoxy)-6-chlorophenyl][methanesulfonyl]}-1,3-thiazole]	5 (Growth inhibition effect is equal to or greater than 90%, or complete withering is achieved)	≥ 50	5 (Growth inhibition effect is equal to or greater than 90%, or complete withering is achieved)	5 (Growth inhibition effect is equal to or greater than 90%, or complete withering is achieved)	–	–	–
O=S(=O)(Cc1ccccc1OC(F)F)c1ncc(Cl)s1 [Compound 1C-38]	5 (Growth inhibition effect is equal to or greater than 90%, or complete withering is achieved)	≥ 90	5 (Growth inhibition effect is equal to or greater than 90%, or complete withering is achieved)	5 (Growth inhibition effect is equal to or greater than 90%, or complete withering is achieved)	5 (Growth inhibition effect is equal to or greater than 90%, or complete withering is achieved)	5 (Growth inhibition effect is equal to or greater than 90%, or complete withering is achieved)	≥ 90
CCOc1cc(CS(=O)(=O)c2ncc(Cl)s2)ccc1Cl [Compound 1C-77]	5 (Growth inhibition effect is equal to or greater than 90%, or complete withering is achieved)	–	3 (Growth inhibition effect equal to or greater than 50%, and less than 70%)	5 (Growth inhibition effect is equal to or greater than 90%, or complete withering is achieved)	5 (Growth inhibition effect is equal to or greater than 90%, or complete withering is achieved)	5 (Growth inhibition effect is equal to or greater than 90%, or complete withering is achieved)	–
COc1cccc(CS(=O)(=O)c2ncc(Cl)s2)c1 [Compound 1C-65]	5 (Growth inhibition effect is equal to or greater than 90%, or complete withering is achieved)	–	5 (Growth inhibition effect is equal to or greater than 90%, or complete withering is achieved)	5 (Growth inhibition effect is equal to or greater than 90%, or complete withering is achieved)	5 (Growth inhibition effect is equal to or greater than 90%, or complete withering is achieved)	5 (Growth inhibition effect is equal to or greater than 90%, or complete withering is achieved)	–
COc1cccc(CS(=O)(=O)c2ncc(Cl)s2)c1Cl [Compound 1C-66]	5 (Growth inhibition effect is equal to or greater than 90%, or complete withering is achieved)	–	4 (Growth inhibition effect is equal to or greater than 70%, and less than 90%)	5 (Growth inhibition effect is equal to or greater than 90%, or complete withering is achieved)	5 (Growth inhibition effect is equal to or greater than 90%, or complete withering is achieved)	5 (Growth inhibition effect is equal to or greater than 90%, or complete withering is achieved)	–
COc1ccc(Cl)c(CS(=O)(=O)c2ncc(Cl)s2)c1 [Compound 1C-70]	5 (Growth inhibition effect is equal to or greater than 90%, or complete withering is achieved)	–	4 (Growth inhibition effect is equal to or greater than 70%, and less than 90%)	5 (Growth inhibition effect is equal to or greater than 90%, or complete withering is achieved)	5 (Growth inhibition effect is equal to or greater than 90%, or complete withering is achieved)	5 (Growth inhibition effect is equal to or greater than 90%, or complete withering is achieved)	–
CCOc1ccc(F)cc1CS(=O)(=O)c1ncc(Cl)s1 [Compound 1C-15]	5 (Growth inhibition effect is equal to or greater than 90%, or complete withering is achieved)	≥ 50	5 (Growth inhibition effect is equal to or greater than 90%, or complete withering is achieved)	5 (Growth inhibition effect is equal to or greater than 90%, or complete withering is achieved)	5 (Growth inhibition effect is equal to or greater than 90%, or complete withering is achieved)	–	–
CCOc1cc(F)c(F)cc1CS(=O)(=O)c1ncc(Cl)s1 [Compound 1C-29]	5 (Growth inhibition effect is equal to or greater than 90%, or complete withering is achieved)	≥ 50	5 (Growth inhibition effect is equal to or greater than 90%, or complete withering is achieved)	5 (Growth inhibition effect is equal to or greater than 90%, or complete withering is achieved)	5 (Growth inhibition effect is equal to or greater than 90%, or complete withering is achieved)	5 (Growth inhibition effect is equal to or greater than 90%, or complete withering is achieved)	–
